# Results reported in article PMC7031696 (Cell chemical biology, 2019).
# Like-named read-outs stand apart in the source and are kept apart here.
# Columns and labels:
# [1] = system: asynchronous 3D7-A10 parasite cultures; assay: Standard 72-h exposure asexual blood stage susceptibility assay (IC50^72h); type: cell-based, Plasmodium falciparum; conditions: Plasmodium falciparum, 3D7, 72 h, read-out: Overall (72hr assay) Mean IC50 (IC50^72h)
# [2] = system: Plasmodium falciparum 3D7-A10 parasites; assay: Stage specificity assay (8-h exposure of synchronized stages, IC50^8h); type: cell-based; conditions: for IC50: Plasmodium falciparum
# [3] = system: 3D7-MR4 trophozoite parasite-infected RBCs; conditions: 10 × IC50^72h; ref Allman et al., 2016; cited from earlier work
# [4] = system: 3D7-A10 or Dd2-B2 parasites; conditions: 3 × IC50^72h drug concentrations; ref Phillips et al., 2015; cited from earlier work
# [5] = system: 3D7-MR4 trophozoite parasite-infected RBCs; assay: Metabolomic profiling (hydrophilic metabolite changes, UHPLC-MS); type: cell-based, Plasmodium falciparum
compound,measurement,setting,value
"Cc1cc(Nc2ccc(S(F)(F)(F)(F)F)cc2)n2nc(C(C)(F)F)nc2n1 [DSM265, reference compound]",IC50,[1],3.8 nM
same,Ratio lowest IC50 8hr/IC50 72hr,[2]; 3D7-A10,2.0
same,overall activity profile (stages on which active),[2]; 8-h exposures,activity against late trophozoites only
same,killing in stage specificity assay,"[2]; 8-h exposures, survival curves",incomplete killing
same,IC50,"[2]; 3D7, read-out: Early rings Mean IC50, shift 2",4820 nM
same,IC50,"[2]; 3D7, read-out: Early trophozoites Mean IC50, shift 1",10.2 nM
same,IC50,"[2]; 3D7, read-out: Early trophozoites Mean IC50, shift 2",1480 nM
same,IC50,"[2]; 3D7, read-out: Late rings Mean IC50, shift 2",1490 nM
same,IC50,"[2]; 3D7, read-out: Late trophozoites Mean IC50, shift 1",7.7 nM
same,IC50,"[2]; 3D7, read-out: Schizonts IC50, shift 2",> 25000 nM
same,IC50,"[2]; 3D7, read-out: Schizonts Mean IC50, shift 1",19.2 nM
same,shape of survival curve,[2]; early trophozoite and schizont stages,biphasic survival curve
same,Stage of peak activity (Figure 6),[2]; period when the parasite was most susceptible (lowest IC50^8h),late trophozoite stages
same,Peak Activity (Table S1),[2]; stage(s) with the lowest IC50^8h,Late Trophs
same,metabolic signature: increases in the pyrimidine precursors dihydroorotate and N-carbamoyl-L-aspartate (mETC disruption),[3],observed
same,minimum inoculum for resistance,[4],2 × 10^6 parasites
same,Log2(fold changes) 3-phosphoglycerate,"[5]; metabolite 3-phosphoglycerate, log2 fold change",0.0300
same,Log2(fold changes) 4-Pyridoxic acid,"[5]; metabolite 4-Pyridoxic acid, log2 fold change",-1.9900
same,Log2(fold changes) 4-aminobutyrate,"[5]; metabolite 4-aminobutyrate, log2 fold change",0.1300
same,Log2(fold changes) 4-phosphopantetheine,"[5]; metabolite 4-phosphopantetheine, log2 fold change",0.0000
same,Log2(fold changes) 4-phosphopantothenate,"[5]; metabolite 4-phosphopantothenate, log2 fold change",-0.1800
same,Log2(fold changes) 5-aminopentanoic acid,"[5]; metabolite 5-aminopentanoic acid, log2 fold change",0.0000
same,Log2(fold changes) 5-methyl-THF,"[5]; metabolite 5-methyl-THF, log2 fold change",0.0000
same,Log2(fold changes) 5-phosphoribosyl-1-pyrophosphate,"[5]; metabolite 5-phosphoribosyl-1-pyrophosphate, log2 fold change",-0.0200
same,Log2(fold changes) 6-phospho-D-gluconate,"[5]; metabolite 6-phospho-D-gluconate, log2 fold change",0.2100
same,Log2(fold change) HVDD,[5]; metabolite HVDD,0.0000
same,Log2(fold change) Hydroxyisocaproic acid,[5]; metabolite Hydroxyisocaproic acid,0.0000
same,Log2(fold change) IDP,[5]; metabolite IDP,0.0000
same,Log2(fold change) IMP,[5]; metabolite IMP,0.1000
same,Log2(fold change) Inositol,[5]; metabolite Inositol,0.0000
same,Log2(fold change) Isopentyl-PP,[5]; metabolite Isopentyl-PP,0.0000
same,Log2(fold change) L-arginino-succinate,[5]; metabolite L-arginino-succinate,0.0000
same,Log2(fold change) LD,[5]; metabolite LD,0.0100
same,Log2(fold change) Myristoyl/tetradecanoyl-CoA,[5]; metabolite Myristoyl/tetradecanoyl-CoA,0.0000
same,Log2(fold change) N-Acetyl-L-alanine,[5]; metabolite N-Acetyl-L-alanine,-0.3700
same,Log2(fold change) N-acetyl-L-ornithine,[5]; metabolite N-acetyl-L-ornithine,-0.2000
same,Log2(fold change) N-acetyl-glucosamine-1/6-phosphate,[5]; metabolite N-acetyl-glucosamine-1/6-phosphate,-0.7400
same,Log2(fold change) N-acetyl-glutamate,[5]; metabolite N-acetyl-glutamate,0.0900
same,Log2(fold change) N-acetyl-glutamine,[5]; metabolite N-acetyl-glutamine,-0.1600
same,Log2(fold change) N-carbamoyl-L-aspartate,[5]; metabolite N-carbamoyl-L-aspartate,4.8500
same,Log2(fold change) NAD+,[5]; metabolite NAD+,0.1500
same,Log2(fold change) NADH,[5]; metabolite NADH,0.7500
same,Log2(fold change) NADP+,[5]; metabolite NADP+,0.0800
same,Log2(fold change) NADPH,[5]; metabolite NADPH,0.6400
same,Log2(fold change) O-acetyl-L-serine,[5]; metabolite O-acetyl-L-serine,0.0000
same,Log2(fold change) Octoluse 8/1P,[5]; metabolite Octoluse 8/1P,0.2400
same,Log2(fold change) Octoluse Bisphosphate,[5]; metabolite Octoluse Bisphosphate,-0.2600
same,Log2(fold change) PD,[5]; metabolite PD,-0.0800
same,Log2(fold change) PE,[5]; metabolite PE,-0.3900
same,Log2(fold change) PEE,[5]; metabolite PEE,-0.4300
same,Log2(fold change) PEEK,[5]; metabolite PEEK,-0.3200
same,Log2(fold change) PVNF,[5]; metabolite PVNF,-0.8600
same,Log2(fold change) Pyroglutamic acid,[5]; metabolite Pyroglutamic acid,0.0900
same,Log2(fold change) Pyrophosphate,[5]; metabolite Pyrophosphate,0.2500
same,Log2(fold change) Ribose-5-phosphate,[5]; metabolite Ribose-5-phosphate,0.0000
same,Log2(fold change) S-adenosyl-L-homocysteine,[5]; metabolite S-adenosyl-L-homocysteine,-1.4900
same,Log2(fold change) S-adenosyl-L-methioninamine,[5]; metabolite S-adenosyl-L-methioninamine,0.0000
same,Log2(fold change) S-adenosyl-L-methionine,[5]; metabolite S-adenosyl-L-methionine,0.0000
same,Log2(fold change) S-methyl-5'-thioadenosine,[5]; metabolite S-methyl-5'-thioadenosine,-0.0400
same,Log2(fold change) SD,[5]; metabolite SD,-0.2500
same,Log2(fold change) SDL,[5]; metabolite SDL,0.0000
same,Log2(fold change) SID,[5]; metabolite SID,0.0000
same,Log2(fold change) Sedoheptulose bisphosphate,[5]; metabolite Sedoheptulose bisphosphate,0.0300
same,Log2(fold change) Thiamine pyrophosphate,[5]; metabolite Thiamine pyrophosphate,0.0000
same,Log2(fold changes) UDP-D-glucose,"[5]; metabolite UDP-D-glucose, log2 fold change",0.0500
same,Log2(fold changes) UDP-D-glucuronate,"[5]; metabolite UDP-D-glucuronate, log2 fold change",0.0200
same,Log2(fold changes) UDP-N-acetyl-glucosamine,"[5]; metabolite UDP-N-acetyl-glucosamine, log2 fold change",-0.1200
same,Log2(fold changes) UDP,"[5]; metabolite UDP, log2 fold change",-1.5400
same,Log2(fold changes) UMP,"[5]; metabolite UMP, log2 fold change",-0.9900
same,Log2(fold changes) UTP,"[5]; metabolite UTP, log2 fold change",-1.4400
same,Log2(fold change) hydroxyphenylpyruvate,[5]; metabolite hydroxyphenylpyruvate,0.0000
same,Log2(fold change) hydroxyproline/Aminolevulinate,[5]; metabolite hydroxyproline/Aminolevulinate,0.0000
same,Log2(fold change) hypoxanthine,[5]; metabolite hypoxanthine,0.3100
same,Log2(fold change) indole,[5]; metabolite indole,0.1900
same,Log2(fold change) inosine,[5]; metabolite inosine,0.2300
same,Log2(fold change) isoleucine,[5]; metabolite isoleucine,0.0000
same,Log2(fold change) lactate,[5]; metabolite lactate,-0.1200
same,Log2(fold change) leucine,[5]; metabolite leucine,0.0000
same,Log2(fold change) lysine,[5]; metabolite lysine,0.0000
same,Log2(fold change) malate,[5]; metabolite malate,-0.2600
same,Log2(fold change) maleic acid,[5]; metabolite maleic acid,0.0000
same,Log2(fold change) methionine,[5]; metabolite methionine,0.0000
same,Log2(fold change) myo-inositol,[5]; metabolite myo-inositol,-0.8500
same,Log2(fold change) nicotinamide mononucleotide,[5]; metabolite nicotinamide mononucleotide,0.0000
same,Log2(fold change) nicotinate,[5]; metabolite nicotinate,-0.0300
same,Log2(fold change) ornithine,[5]; metabolite ornithine,-0.1100
same,Log2(fold change) orotate,[5]; metabolite orotate,-0.2100
same,Log2(fold change) orotidine-5'-phosphate,[5]; metabolite orotidine-5'-phosphate,0.0000
same,Log2(fold change) oxaloacetate,[5]; metabolite oxaloacetate,0.0000
same,Log2(fold change) p-aminobenzoate,[5]; metabolite p-aminobenzoate,0.0000
same,Log2(fold change) p-hydroxybenzoate,[5]; metabolite p-hydroxybenzoate,0.2000
same,Log2(fold change) pantothenate,[5]; metabolite pantothenate,0.0000
same,Log2(fold change) phenylalanine,[5]; metabolite phenylalanine,0.0000
same,Log2(fold change) phenylpyruvate,[5]; metabolite phenylpyruvate,1.0600
same,Log2(fold change) phosphoenolpyruvate,[5]; metabolite phosphoenolpyruvate,0.0800
same,Log2(fold change) prephenate,[5]; metabolite prephenate,0.0000
same,Log2(fold change) proline,[5]; metabolite proline,0.0000
same,Log2(fold change) pyridoxine,[5]; metabolite pyridoxine,0.0000
same,Log2(fold change) pyruvate,[5]; metabolite pyruvate,0.0500
same,Log2(fold change) riboflavin,[5]; metabolite riboflavin,0.0000
same,Log2(fold change) ribose,[5]; metabolite ribose,0.0000
same,Log2(fold change) ribose-phosphate,[5]; metabolite ribose-phosphate,0.2500
same,Log2(fold change) ribulose-5-phosphate,[5]; metabolite ribulose-5-phosphate,0.0000
same,Log2(fold change) serine,[5]; metabolite serine,0.0000
same,Log2(fold change) sn-glycerol-3-phosphate,[5]; metabolite sn-glycerol-3-phosphate,0.1700
same,Log2(fold change) succinate/Methylmalonic acid,[5]; metabolite succinate/Methylmalonic acid,-0.0400
same,Log2(fold change) succinyl-CoA/methylmalonyl-CoA,[5]; metabolite succinyl-CoA/methylmalonyl-CoA,0.0000
same,Log2(fold change) taurine,[5]; metabolite taurine,0.0000
same,Log2(fold change) thiamine,[5]; metabolite thiamine,0.0000
same,Log2(fold change) threonine/homoserine,[5]; metabolite threonine/homoserine,0.0000
same,Log2(fold change) thymidine,[5]; metabolite thymidine,-0.5100
same,Log2(fold changes) thymine,"[5]; metabolite thymine, log2 fold change",-0.0500
same,Log2(fold changes) trehalose-6-Phosphate,"[5]; metabolite trehalose-6-Phosphate, log2 fold change",0.0000
same,Log2(fold changes) tryptophan,"[5]; metabolite tryptophan, log2 fold change",0.0000
same,Log2(fold changes) tyrosine,"[5]; metabolite tyrosine, log2 fold change",0.0000
same,Log2(fold changes) uridine,"[5]; metabolite uridine, log2 fold change",-0.1000
